# Key:
# cancer cell lines = details: cited from earlier work
# lung cancer xenograft = details: mouse, in vivo; cited from earlier work
# NCI-H460 cells = assay: Drug synergy analysis, PKC412 with etoposide (VP16), sub-G1 flow cytometry; type: cell-based; details: simultaneous 25 μM etoposide and escalating PKC412 (0-100 μM), 48 hours
# Method: (§1) All other drugs were purchased from Sigma.
# (§2) After 48 hours, the fraction of cells with subdiploid DNA content (sub-G1) was quantified by flow cytometry. DMSO-treated cells (white bars) served as negative controls.
# A549 cells = assay: as above; type: cell-based
# Method: as §1, §2
# [1] = tested on: phosphorylation of protein kinase B/AKT and glycogen synthase kinase 3-beta; assay: Immunoblotting of downstream targets of PKC signal transduction after PMA stimulation; type: cell-based; details: drug-resistant and drug-sensitive cell lines; PKC412 1 to 10 μM for 2 hours, then PMA 1 μM 10 minutes
# Method: Immunoblotting and cell fractionation was performed as described previously (38, 39) using primary antibodies against caspase-9 (Chemicon), caspase-3, BCL-XL, cytochrome c (BD Pharmingen), BAX, BAK, PARP (Upstate), AKT, phospho-AKT, GSK-3beta, phospho-GSK3beta (Cell Signaling), and actin (ICN).
# [2] = tested on: NSCLC cell lines expressing BAK under the control of a tetracycline-regulated promoter; assay: Apoptosis induced by PKC inhibitors with conditional BAK expression (DOX), sub-G1 / TMRE / caspase cleavage immunoblot; type: cell-based; details: drug-resistant NSCLC cells (A549, NCI-H1299), 48 hours
# Method: NSCLC cell lines known in the art were obtained. Unless otherwise specified, NSCLC cells were grown on tissue culture dishes (BD Falcon) in Dulbecco's Modified Eagle Medium supplemented with 10% fetal bovine serum, glucose, L-glutamine and penicillin/streptomycin in a humidified atmosphere at 5% CO2. NSCLC cells conditionally expressing transgenic BAK were obtained using the BD RevTet-On vector system (BD Clontech). A BamHI fragment encoding the full length human BAK cDNA was generated by PCR, confirmed by sequencing, and cloned into the pRevTRE vector. A retroviral BCL-XL expression vector has been described previously (26). Replication-defective retroviral virions were produced by standard calcium phosphate transfection in the FNX ampho packaging cell line (a gift from Dr G. P. Nolan, Stanford). Transductions were performed using filtered supernatants, and populations were selected with hygromycin B and puromycin in the absence of tetracycline, or were obtained by fluorescence activated cell sorting (Coulter) of EGFP-positive cells. […]
# Cells with subdiploid DNA content (sub-G1) were quantified by flow cytometry after 48 hours. […] Cells that maintained Δψm (TMRE+) were quantified by TMRE-staining and flow cytometry after 48 hours. […] Whole cell extracts were obtained at 24 hours, and the cleavage of caspase-9, caspase-3 and the caspase substrate PARP was detected by immunoblotting.
# [3] = phase I study, cited from earlier work
# NCI-H1299 = assay: Cell cycle distribution by flow cytometry; type: cell-based; details: 50 μM PKC412, 24 hours
# NCI-H1299 cells = assay: Drug synergy analysis, PKC412 with etoposide (VP16), sub-G1 flow cytometry
# [4] = tested on: NSCLC cells expressing BAK under the control of a tetracycline-regulated promoter; assay: Apoptosis facilitated by conditionally expressed transgenic BAK; type: cell-based; details: BAK induced by DOX; data not shown
# [5] = simultaneous 25 μM etoposide and escalating PKC412 (0-100 μM), 48 hours
Compound,effect on cancer cell lines (cancer cell lines),effects in murine xenograft model of lung cancer (lung cancer xenograft),apoptosis with PKC412 plus VP16 compared to VP16 alone (NCI-H460 cells),"apoptosis after PKC412 pre-treatment versus VP16 pre-treatment (A549 cells; 50 μM PKC412 and 25 μM etoposide, sequential, 24 hours each)",cytotoxicity of combined treatment with PKC412 and VP16 (A549 cells; [5]),"phosphorylation of downstream targets of PKC signal transduction (AKT, GSK-3beta) [1]",sensitisation to PKC412-mediated apoptosis by inducible expression of BAK [2],"safety of combination with CDDP/gemcitabine ([3]; patients with advanced NSCLC, with standard cytotoxic regimen of CDDP/gemcitabine)","safety and feasibility of oral administration ([3]; patients with advanced cancers, oral)",cell cycle distribution after pre-treatment with PKC412 (NCI-H1299),"apoptosis induced by VP16 given subsequently to PKC412 (NCI-H1299 cells; 50 μM PKC412 24 hours, then 25 μM etoposide another 24 hours)",effect of PKC412 on VP16-induced apoptosis (NCI-H1299 cells; [5]),effect on apoptosis facilitated by transgenic BAK [4]
CN[C@@H]1C[C@H]2O[C@@](C)([C@@H]1OC)n1c3ccccc3c3c4c(c5c6ccccc6n2c5c31)C(=O)NC4 [staurosporine],induced cell cycle arrest or apoptosis,antitumoral and antiangiogenic effects,–,–,–,–,–,–,–,–,–,–,–
"CO[C@@H]1[C@H](N(C)C(=O)c2ccccc2)C[C@H]2O[C@]1(C)n1c3ccccc3c3c4c(c5c6ccccc6n2c5c31)C(=O)NC4 [PKC412, N-[(9S,10R,11R,13R)-2,3,10,11,12,13-hexahydro-10-methoxy-9-methyl-1-oxo-9,13-epoxy-1H,9H-diindolo[1,2,3-gh:3′,2′,1′-Im]pyrrolo[3,4j][1,7]benzodiazonin-11-yl]-N-methylbenzamide]",induced cell cycle arrest or apoptosis,antitumoral and antiangiogenic effects,no further increase in apoptosis,did not significantly differ,additive cytotoxicity,effectively reduced,Sensitized,established,safe and feasible,cell cycle arrest in the G2/M-phase,reduced the amount of apoptosis,protected NCI-H1299 cells against VP16-induced apoptosis,–
zVAD-fmk,–,–,–,–,–,–,–,–,–,–,–,–,inhibited
